From ChEMBL document CHEMBL4190335, “Design of KDM4 Inhibitors with Antiproliferative Effects in Cancer Models” (ACS Med Chem Lett, 2017)
Blank lines part the entries; values can stand above or below the compound they belong to. The source made the active and inactive calls. No cut-off for these calls is given here.

How the values were obtained:
KYSE-150 cell line = assay: cells; details: Homo sapiens, KYSE-150, 168 h
Description: Antiproliferative activity against human KYSE-150 cells after 168 hrs by 5-bromo-2'-deoxyuridine thymidine incorporation assay

[1] = target: T1, Lysine-specific demethylase 4C (Homo sapiens, UniProt Q9H3R0); assay: Inhibition of KDM4C (unknown origin) using biotinylated H3K9me3 peptide and alpha-ketoglutarate as substrate pretreated for 1 hr followed by substrate addition measured after 20 mins in presence of 0.2 mg/ml BSA by LANCE TR-FRET assay
T1 sequence (Q9H3R0 whole entry): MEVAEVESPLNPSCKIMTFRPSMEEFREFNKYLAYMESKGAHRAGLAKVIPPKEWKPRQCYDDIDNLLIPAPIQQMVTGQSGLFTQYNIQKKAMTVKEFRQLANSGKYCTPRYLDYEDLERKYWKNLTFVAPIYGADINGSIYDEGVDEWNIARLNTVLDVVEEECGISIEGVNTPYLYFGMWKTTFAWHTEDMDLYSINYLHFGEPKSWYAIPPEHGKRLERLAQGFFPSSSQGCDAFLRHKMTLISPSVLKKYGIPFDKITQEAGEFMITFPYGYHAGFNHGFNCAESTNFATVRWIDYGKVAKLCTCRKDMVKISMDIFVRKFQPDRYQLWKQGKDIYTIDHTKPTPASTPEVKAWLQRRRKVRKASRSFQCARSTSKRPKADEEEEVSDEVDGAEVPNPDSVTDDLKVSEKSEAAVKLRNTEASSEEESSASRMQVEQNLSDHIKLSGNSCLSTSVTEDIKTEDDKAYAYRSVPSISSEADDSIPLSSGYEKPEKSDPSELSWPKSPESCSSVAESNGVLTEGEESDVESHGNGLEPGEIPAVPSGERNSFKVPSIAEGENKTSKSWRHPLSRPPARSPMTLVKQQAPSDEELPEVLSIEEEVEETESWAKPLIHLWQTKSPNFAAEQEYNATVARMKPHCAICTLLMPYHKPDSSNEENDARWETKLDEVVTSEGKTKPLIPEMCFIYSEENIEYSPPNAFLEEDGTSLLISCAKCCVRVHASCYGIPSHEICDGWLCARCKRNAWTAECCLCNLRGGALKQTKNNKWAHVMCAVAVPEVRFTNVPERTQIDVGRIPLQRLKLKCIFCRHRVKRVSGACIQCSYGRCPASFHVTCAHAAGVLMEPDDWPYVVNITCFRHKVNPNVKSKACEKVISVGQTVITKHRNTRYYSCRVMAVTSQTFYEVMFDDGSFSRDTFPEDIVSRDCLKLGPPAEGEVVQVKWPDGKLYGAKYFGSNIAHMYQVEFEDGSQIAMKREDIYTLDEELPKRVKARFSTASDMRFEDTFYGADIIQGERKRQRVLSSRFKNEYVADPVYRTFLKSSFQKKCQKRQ

[2] = target: T1, Lysine-specific demethylase 4C; assay: Inhibition of full-length KDM4C (unknown origin) expressed in human KYSE-150 cells assessed as increase in H3K36me3 level after 24 hrs by HTRF assay
[3] = target: T2, Lysine-specific demethylase 4C (Homo sapiens) (UniProt Q9H3R0); assay: as above
T2 sequence (whole entry): T1 sequence (Q9H3R0 whole entry)

Homo sapiens [4] = organism: Homo sapiens; assay: Inhibition of KDM5 in human KYSE-150 cells assessed as increase in H3K4me3 level at higher concentration after 24 hrs by UHPLC-MS/MS analysis; format: cell-based
[5] = Permeability of the compound by PAMPA; format: ADME; details: read-out: permeability
[6] = target: Lysine-specific histone demethylase 1A (Homo sapiens) (UniProt O60341); assay: Inhibition of KDM1 in human KYSE-150 cells assessed as increase in H3K4me2 level at higher concentration after 24 hrs by UHPLC-MS/MS analysis; format: cell-based
Homo sapiens [7] = organism: Homo sapiens; assay: Inhibition of KDM6 in human KYSE-150 cells assessed as increase in H3K27me3 level at higher concentration after 24 to 96 hrs by UHPLC-MS/MS analysis; format: cell-based
IMR-90 = assay: Cytotoxicity against human IMR90 cells; format: cell-based
[8] = target: T3, Lysine-specific demethylase 3A (Homo sapiens, UniProt Q9Y4C1); assay: Inhibition of KDM3A (unknown origin) using biotinylated H3K9me1 peptide and alpha-ketoglutarate as substrate measured after 20 mins by LANCE TR-FRET assay
T3 sequence (Q9Y4C1 whole entry): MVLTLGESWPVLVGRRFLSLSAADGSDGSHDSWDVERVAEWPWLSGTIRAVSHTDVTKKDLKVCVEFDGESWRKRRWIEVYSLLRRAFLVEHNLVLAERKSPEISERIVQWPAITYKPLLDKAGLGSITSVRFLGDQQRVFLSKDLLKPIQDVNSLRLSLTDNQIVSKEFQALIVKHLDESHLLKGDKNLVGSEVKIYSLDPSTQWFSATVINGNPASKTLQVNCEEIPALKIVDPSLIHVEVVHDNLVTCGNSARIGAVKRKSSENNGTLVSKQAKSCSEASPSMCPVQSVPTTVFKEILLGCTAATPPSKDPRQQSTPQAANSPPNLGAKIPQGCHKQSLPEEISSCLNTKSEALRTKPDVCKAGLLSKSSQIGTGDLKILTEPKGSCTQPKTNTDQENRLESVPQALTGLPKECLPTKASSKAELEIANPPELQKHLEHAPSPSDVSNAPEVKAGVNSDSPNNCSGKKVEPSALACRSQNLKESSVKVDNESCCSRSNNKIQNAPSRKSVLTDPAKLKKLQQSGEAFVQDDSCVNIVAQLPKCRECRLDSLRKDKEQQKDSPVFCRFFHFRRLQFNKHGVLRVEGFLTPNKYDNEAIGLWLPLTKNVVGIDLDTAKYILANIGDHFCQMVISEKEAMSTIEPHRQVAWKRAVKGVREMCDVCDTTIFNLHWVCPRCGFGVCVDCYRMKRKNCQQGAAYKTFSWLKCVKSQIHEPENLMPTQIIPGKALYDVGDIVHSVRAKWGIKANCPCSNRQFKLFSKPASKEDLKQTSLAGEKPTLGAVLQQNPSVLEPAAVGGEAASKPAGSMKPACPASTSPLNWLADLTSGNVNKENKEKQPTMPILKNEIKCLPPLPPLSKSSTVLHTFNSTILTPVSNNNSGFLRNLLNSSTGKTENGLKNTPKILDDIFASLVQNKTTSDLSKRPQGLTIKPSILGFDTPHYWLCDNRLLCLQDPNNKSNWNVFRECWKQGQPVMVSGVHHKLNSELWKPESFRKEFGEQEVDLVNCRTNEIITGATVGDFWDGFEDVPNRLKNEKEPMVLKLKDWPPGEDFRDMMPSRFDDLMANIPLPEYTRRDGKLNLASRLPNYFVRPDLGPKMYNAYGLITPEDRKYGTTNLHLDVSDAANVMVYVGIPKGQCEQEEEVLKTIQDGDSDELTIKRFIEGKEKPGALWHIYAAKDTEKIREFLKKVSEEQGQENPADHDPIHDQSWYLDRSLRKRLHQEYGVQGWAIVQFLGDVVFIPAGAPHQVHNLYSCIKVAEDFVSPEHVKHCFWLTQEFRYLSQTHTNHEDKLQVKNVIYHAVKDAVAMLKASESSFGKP

[9] = Systemic clearance in CD-1 mouse at 5 mg/kg, iv; format: ADME, organism-based; details: in vivo
[10] = Volume of distribution in CD-1 mouse at 5 mg/kg, iv; format: ADME, organism-based; details: in vivo
[11] = target: Lysine-specific demethylase 3B (Homo sapiens, UniProt Q7LBC6); assay: Inhibition of KDM3B (unknown origin) using biotinylated H3K9me1 peptide and alpha-ketoglutarate as substrate measured after 20 mins by LANCE TR-FRET assay
[12] = target: Histone lysine demethylase PHF8 (Homo sapiens, UniProt Q9UPP1); assay: Inhibition of PHF8 (unknown origin) using biotinylated H3K9me1 peptide and alpha-ketoglutarate as substrate measured after 20 mins by LANCE TR-FRET assay
[13] = target: T4, Lysine-specific demethylase 2B (Homo sapiens, UniProt Q8NHM5); assay: Inhibition of KDM2B (unknown origin) using biotinylated H3K36me2 peptide and alpha-ketoglutarate as substrate pretreated for 1 hr followed by substrate addition measured after 20 mins by LANCE TR-FRET assay
T4 sequence (Q8NHM5 whole entry): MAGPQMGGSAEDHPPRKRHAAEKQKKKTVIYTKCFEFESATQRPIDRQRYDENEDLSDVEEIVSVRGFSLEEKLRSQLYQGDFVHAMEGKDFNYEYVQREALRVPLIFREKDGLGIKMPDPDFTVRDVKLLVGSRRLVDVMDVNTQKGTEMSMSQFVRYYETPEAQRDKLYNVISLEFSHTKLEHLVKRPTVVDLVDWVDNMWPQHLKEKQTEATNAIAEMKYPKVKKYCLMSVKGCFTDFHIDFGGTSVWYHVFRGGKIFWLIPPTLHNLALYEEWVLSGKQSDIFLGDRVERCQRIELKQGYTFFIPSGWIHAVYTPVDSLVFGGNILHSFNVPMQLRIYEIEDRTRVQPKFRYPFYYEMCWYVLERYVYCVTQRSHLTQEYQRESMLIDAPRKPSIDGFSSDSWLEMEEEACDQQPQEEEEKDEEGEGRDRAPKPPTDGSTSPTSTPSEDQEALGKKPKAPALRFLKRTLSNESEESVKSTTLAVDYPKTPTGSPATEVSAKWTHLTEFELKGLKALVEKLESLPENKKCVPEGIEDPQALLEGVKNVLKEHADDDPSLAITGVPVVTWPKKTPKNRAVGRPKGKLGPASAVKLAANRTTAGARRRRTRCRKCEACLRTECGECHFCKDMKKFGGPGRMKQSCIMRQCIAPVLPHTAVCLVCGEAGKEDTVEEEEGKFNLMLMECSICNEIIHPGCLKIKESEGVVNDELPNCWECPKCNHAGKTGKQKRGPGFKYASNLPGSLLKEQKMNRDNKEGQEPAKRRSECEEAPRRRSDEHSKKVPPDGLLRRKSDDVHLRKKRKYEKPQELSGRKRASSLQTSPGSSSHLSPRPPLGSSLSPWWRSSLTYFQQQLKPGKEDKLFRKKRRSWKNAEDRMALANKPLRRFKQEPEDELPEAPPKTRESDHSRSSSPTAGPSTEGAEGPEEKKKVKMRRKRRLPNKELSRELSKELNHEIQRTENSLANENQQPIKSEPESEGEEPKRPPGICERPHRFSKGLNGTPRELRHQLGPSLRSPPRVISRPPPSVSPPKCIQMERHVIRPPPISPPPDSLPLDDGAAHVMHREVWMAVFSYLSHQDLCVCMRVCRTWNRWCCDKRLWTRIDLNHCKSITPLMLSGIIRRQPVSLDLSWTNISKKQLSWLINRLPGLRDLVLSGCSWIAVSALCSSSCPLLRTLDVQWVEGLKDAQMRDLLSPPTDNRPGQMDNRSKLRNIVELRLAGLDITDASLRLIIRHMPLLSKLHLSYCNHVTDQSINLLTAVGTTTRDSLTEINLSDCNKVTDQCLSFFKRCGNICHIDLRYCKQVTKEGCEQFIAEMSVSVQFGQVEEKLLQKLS

[14] = target: T1, Lysine-specific demethylase 4C; assay: Inhibition of KDM4C (unknown origin) using biotinylated H3K9me3 peptide and alpha-ketoglutarate as substrate pretreated for 1 hr followed by substrate addition measured after 20 mins in presence of 0.02 mg/ml BSA by LANCE TR-FRET assay
[15] = target: Lysine-specific demethylase 6B (Homo sapiens, UniProt O15054); assay: Inhibition of KDM6B (unknown origin) using biotinylated H3K27me3 peptide and alpha-ketoglutarate as substrate pretreated for 1 hr followed by substrate addition measured after 20 mins by LANCE TR-FRET assay
[16] = Oral bioavailability in CD-1 mouse at 10 mg/kg; format: ADME, organism-based; details: in vivo
[17] = AUC in CD-1 mouse at 10 mg/kg, po; format: ADME, organism-based; details: in vivo

Lysine-specific demethylase 6B, sequence (O15054 whole entry): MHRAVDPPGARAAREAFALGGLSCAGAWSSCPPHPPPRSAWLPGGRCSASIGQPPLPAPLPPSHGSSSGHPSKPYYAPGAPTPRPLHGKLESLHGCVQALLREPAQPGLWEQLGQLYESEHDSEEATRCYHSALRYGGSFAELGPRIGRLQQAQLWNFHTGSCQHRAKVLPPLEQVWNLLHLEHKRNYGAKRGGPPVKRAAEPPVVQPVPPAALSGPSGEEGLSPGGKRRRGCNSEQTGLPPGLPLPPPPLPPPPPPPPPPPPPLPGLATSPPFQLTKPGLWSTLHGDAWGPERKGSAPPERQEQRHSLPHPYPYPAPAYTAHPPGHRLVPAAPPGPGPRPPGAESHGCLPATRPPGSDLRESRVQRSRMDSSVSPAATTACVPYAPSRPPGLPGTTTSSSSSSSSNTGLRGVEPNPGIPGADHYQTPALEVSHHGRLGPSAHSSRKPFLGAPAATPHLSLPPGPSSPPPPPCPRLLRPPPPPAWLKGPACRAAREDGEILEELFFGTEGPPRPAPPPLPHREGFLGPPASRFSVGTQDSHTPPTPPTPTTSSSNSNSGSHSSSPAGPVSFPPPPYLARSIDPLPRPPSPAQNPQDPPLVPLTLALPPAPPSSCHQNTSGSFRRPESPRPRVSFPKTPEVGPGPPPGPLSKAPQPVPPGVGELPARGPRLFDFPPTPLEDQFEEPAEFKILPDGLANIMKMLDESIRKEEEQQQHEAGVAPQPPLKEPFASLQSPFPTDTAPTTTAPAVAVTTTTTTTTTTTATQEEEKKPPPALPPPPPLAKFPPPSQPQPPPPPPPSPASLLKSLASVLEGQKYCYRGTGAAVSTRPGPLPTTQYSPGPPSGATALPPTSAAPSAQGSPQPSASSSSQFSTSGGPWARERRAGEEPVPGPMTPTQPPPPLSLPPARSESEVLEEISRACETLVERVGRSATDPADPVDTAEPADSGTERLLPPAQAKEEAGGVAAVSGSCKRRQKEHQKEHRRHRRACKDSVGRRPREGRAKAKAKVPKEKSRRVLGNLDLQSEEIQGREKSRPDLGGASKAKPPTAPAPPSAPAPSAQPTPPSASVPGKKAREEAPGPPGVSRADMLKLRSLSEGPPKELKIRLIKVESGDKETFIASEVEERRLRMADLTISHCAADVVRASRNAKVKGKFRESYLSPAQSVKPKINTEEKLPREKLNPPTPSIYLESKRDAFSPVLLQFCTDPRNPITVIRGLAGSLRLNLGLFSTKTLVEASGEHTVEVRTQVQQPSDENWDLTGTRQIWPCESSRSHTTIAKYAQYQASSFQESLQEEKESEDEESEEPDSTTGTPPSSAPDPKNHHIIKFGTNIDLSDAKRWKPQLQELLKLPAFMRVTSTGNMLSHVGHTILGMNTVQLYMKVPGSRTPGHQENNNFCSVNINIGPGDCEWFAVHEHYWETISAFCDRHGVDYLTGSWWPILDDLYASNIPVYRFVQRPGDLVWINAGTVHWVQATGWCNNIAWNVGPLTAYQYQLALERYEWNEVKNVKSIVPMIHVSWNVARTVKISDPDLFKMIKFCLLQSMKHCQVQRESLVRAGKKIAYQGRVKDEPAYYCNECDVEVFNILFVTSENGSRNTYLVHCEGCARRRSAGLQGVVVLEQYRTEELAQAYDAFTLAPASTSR
Histone lysine demethylase PHF8, sequence (Q9UPP1 whole entry): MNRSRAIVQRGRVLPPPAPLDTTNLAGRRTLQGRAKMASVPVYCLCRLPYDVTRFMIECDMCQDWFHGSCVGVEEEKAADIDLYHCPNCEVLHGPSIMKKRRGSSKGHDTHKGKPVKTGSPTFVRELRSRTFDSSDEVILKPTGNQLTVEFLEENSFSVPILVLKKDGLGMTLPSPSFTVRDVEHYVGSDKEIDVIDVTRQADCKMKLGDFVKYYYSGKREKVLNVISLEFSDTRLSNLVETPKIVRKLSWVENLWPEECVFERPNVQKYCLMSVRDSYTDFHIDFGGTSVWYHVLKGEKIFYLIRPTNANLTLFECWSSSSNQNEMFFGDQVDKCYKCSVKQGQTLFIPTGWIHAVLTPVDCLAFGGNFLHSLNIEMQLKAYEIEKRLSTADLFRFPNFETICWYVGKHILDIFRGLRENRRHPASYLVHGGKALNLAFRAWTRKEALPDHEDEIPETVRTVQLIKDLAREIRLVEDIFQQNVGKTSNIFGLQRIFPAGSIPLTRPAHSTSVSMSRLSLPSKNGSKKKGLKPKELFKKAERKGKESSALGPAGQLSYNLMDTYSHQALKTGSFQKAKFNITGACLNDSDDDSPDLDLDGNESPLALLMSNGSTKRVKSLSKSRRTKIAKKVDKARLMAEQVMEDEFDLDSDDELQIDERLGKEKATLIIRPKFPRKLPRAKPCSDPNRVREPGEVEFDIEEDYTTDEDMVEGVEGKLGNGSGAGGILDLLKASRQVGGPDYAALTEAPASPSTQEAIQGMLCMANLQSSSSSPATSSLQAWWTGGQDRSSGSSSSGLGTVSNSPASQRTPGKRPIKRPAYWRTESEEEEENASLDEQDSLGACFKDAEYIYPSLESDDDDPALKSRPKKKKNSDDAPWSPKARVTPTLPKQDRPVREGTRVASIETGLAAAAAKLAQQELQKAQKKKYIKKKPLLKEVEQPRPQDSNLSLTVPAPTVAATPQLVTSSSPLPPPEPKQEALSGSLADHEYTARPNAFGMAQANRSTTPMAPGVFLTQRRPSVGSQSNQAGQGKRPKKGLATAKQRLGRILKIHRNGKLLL
Lysine-specific demethylase 3B, sequence (Q7LBC6 whole entry): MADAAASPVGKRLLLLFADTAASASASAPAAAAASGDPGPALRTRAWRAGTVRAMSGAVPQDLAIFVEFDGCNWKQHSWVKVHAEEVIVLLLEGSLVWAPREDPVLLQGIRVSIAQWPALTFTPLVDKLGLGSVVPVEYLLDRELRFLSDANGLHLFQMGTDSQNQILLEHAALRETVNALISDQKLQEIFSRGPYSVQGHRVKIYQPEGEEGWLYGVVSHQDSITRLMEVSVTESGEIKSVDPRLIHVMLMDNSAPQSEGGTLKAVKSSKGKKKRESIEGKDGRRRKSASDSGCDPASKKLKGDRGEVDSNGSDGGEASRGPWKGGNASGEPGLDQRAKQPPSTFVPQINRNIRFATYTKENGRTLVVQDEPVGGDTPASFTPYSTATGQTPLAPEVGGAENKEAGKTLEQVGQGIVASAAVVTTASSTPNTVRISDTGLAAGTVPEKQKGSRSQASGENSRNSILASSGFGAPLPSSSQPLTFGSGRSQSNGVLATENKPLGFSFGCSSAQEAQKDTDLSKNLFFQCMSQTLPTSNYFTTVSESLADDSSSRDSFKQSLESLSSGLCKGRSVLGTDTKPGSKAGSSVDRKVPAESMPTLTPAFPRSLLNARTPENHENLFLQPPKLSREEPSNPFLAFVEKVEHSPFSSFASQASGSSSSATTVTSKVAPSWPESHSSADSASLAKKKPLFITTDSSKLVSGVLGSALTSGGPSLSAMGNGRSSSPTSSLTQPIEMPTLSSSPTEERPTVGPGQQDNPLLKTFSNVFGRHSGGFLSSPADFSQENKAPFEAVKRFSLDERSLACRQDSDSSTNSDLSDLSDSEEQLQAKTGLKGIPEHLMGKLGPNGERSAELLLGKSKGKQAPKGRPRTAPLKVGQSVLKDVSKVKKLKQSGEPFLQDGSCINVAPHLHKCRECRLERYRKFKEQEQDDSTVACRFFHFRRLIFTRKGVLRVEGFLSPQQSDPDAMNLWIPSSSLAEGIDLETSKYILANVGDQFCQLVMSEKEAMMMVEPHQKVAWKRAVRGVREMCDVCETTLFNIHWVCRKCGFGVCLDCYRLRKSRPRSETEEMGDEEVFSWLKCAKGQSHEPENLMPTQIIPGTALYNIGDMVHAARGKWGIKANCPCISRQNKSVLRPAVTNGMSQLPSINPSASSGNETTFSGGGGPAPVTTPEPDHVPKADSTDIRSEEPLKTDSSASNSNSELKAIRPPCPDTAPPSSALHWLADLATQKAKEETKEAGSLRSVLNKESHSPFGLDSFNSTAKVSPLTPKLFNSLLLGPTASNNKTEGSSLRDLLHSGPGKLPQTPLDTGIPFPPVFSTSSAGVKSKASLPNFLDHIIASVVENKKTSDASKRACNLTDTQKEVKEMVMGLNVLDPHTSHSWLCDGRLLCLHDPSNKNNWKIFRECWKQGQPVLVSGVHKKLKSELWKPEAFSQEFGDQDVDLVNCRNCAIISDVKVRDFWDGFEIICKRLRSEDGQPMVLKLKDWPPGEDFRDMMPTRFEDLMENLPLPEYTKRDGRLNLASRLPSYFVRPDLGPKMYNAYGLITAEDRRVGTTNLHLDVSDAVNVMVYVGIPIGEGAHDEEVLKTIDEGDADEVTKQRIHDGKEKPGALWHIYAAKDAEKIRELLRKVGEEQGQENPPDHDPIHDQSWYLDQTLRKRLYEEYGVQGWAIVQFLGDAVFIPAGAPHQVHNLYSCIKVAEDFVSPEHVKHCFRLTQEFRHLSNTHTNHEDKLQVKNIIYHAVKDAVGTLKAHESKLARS

SMILES: O=C(O)c1ccncc1NCC1CCCc2ccccc21 (centres undefined)
EC50 (KYSE-150 cell line): 6000 nM
IC50 [1]: 12 nM

SMILES: O=C(O)c1ccncc1NC[C@@H]1CCCc2cc(Sc3ccccc3)ccc21
IC50 [1]: 48 nM
EC50 [2]: 19 nM

SMILES: O=C(O)c1ccncc1NC[C@H]1CCCc2ccccc21
EC50 (KYSE-150 cell line): > 100000 nM
IC50 [1]: > 2000 nM
inhibition [3]: inactive

SMILES: CN(c1ccccc1)c1ccc2c(c1)CCC[C@H]2CNc1cnccc1C(=O)O
IC50 [8]: > 4000 nM
clearance [9]: 6.9 mL/min/kg
Vd [10]: 0.675 L/kg
IC50 [11]: > 4000 nM
IC50 [12]: > 4000 nM
IC50 [13]: > 4000 nM
EC50 [2]: 1.3 nM
IC50 [14]: 9 nM
IC50 [15]: > 4000 nM
bioavailability [16]: 30%
AUC [17]: 10400 ng·h/mL

Second part, led by results:

EC50 (KYSE-150 cell line): 4000 nM
IC50 [1]: 8 nM
SMILES: O=C(O)c1ccncc1NC[C@@H]1CCCc2ccccc21

EC50 (KYSE-150 cell line): 830 nM
Papp [5]: 1.84 ×10⁻⁶ cm/s
IC50 [1]: 6 nM
inhibition [6]: Below limit of detection
inhibition [3]: Dose-dependent effect
EC50 [2]: 560 nM
SMILES: COc1ccc2c(c1)CCC[C@H]2CNc1cnccc1C(=O)O
inhibition (Homo sapiens [4]): Below limit of detection
inhibition (Homo sapiens [7]): Active
EC50 (IMR-90): > 30000 nM
